According to patent US10143686B2, “Oxidosqualene cyclase as a protein target for anticancer therapeutics” (The Curators of the University of Missouri, priority 2010, dated 2018):
Where a name gives a salt, the structure may show the parent alone.

Test system: PC-3 and DU-145 human prostate cancer cells
Assay: Annexin V / PI apoptosis assay, prostate cancer cells
Assay type: cell-based
Conditions: 24 hours
Description: Apoptosis is a normal physiologic process which occurs during embryonic development as well as in maintenance of tissue homeostasis. The apoptotic program is characterized by certain morphologic features, including loss of plasma membrane asymmetry and attachment, condensation of the cytoplasm and nucleus, and internucleosomal cleavage of DNA. […]. In apoptotic cells, the membrane phospholipid phosphatidylserine (PS) is translocated from the inner to the outer leaflet of the plasma membrane, thereby exposing PS to the external cellular environment. Annexin V is a 35-36 kDa Ca2+ dependent phospholipid-binding protein that has a high affinity for PS, and binds to cells with exposed PS. Annexin V may be conjugated to fluorochromes including FITC. […]
FITC Annexin V staining precedes the loss of membrane integrity which accompanies the latest stages of cell death resulting from either apoptotic or necrotic processes. […] However, when apoptosis is measured over time, cells can be often tracked from FITC Annexin V and PI negative (viable, or no measurable apoptosis), to FITC Annexin V positive and PI negative (early apoptosis, membrane integrity is present) and finally to FITC Annexin V and PI positive (end stage apoptosis and death). […]

Compound: C=CCN(C)CCCCCCOc1ccc(C(=O)c2ccc(Br)cc2)c(F)c1 [Ro 48-8071, 4′-[6-(Allylmethylamino)hexyloxy]-4-bromo-2′-fluorobenzophenone fumarate]
- apoptosis and cell death (annexin V / PI positive cells): Induces Apoptosis and Cell Death
